In assay [1] the test system is ACE. Nature of the assay: serum ACE by ELISA in SHRs after 14-day oral administration. The format is in vivo, rat. As to conditions: oral 14 days. The text has this:
All three MDAs (BAC, BMC, and BHC) were purchased from Nature-Standard Co., Ltd. (Shanghai, China) and their purities were all over 98%. The anti-hypertensive effects of MDAs were studied in both acute and chronic experiments. The 16-week-old SHRs were used in animal experiments, and each group had six rats. In the acute experiment, drug administration was via i.v. injection. For i.v. injection, the animals were randomly assigned into four groups: vehicle (0.1% DMSO–0.9% salt solution, n = 6), low-dose group (0.6 mg kg^−1 body weight, n = 6), medium-dose group (2 mg kg^−1 body weight, n = 6), and high-dose group (6 mg kg^−1 body weight, n = 6). The drug was administered using a venous catheter. […] Blood pressure was recorded in real time.
Blood samples were collected from the left femoral artery of rats at the end point, followed by centrifugation at 1,000 × g for 15 min at 4°C. […] The concentrations of circulating ACE, ACE2, Ang I, Ang II, Ang (1–7), TNF-α, and IL-6 in serum were measured using the ELISA kits [ACE, cat#xy-R2401c, X-Y Biotechnology, Shanghai, China; ACE2, cat#xy-ACE2-Ra, X-Y Biotechnology; Ang I, cat#xy-E12541, X-Y Biotechnology; Ang II, cat#xy-R1430c, X-Y Biotechnology; Ang (1–7), cat#xy-Ang1-7-Ra, X-Y Biotechnology; TNF-α, cat#GM1149, Servicebio, Shanghai, China; IL-6, cat#GM1154, Servicebio] according to the manufacturer’s instructions. […]

Assay [2] deals with spontaneously hypertension rats (SHRs). Nature of the assay: chronic experiment: blood pressure, heart rate and aorta histology after 14-day oral administration in SHRs. The format is in vivo, rat. The note with it: for DBP: 14 days (SHRs 130 ± 5); for MAP: 14 days (SHRs 151 ± 5); for SBP: 14 days (SHRs 172 ± 6). How it is done: The SHRs were surgically implanted with a catheter via the left femoral artery, vein, and stomach after anesthetizing with 2% pentobarbital sodium (40 mg kg^−1 i.p.,). A pressure sensor was inserted into the terminal of the arterial catheter and connected to a PowerLab system (ADInstruments, New South Wales, Australia) for real-time blood pressure monitoring.
All three MDAs (BAC, BMC, and BHC) were purchased from Nature-Standard Co., Ltd. (Shanghai, China) and their purities were all over 98%. The anti-hypertensive effects of MDAs were studied in both acute and chronic experiments. The 16-week-old SHRs were used in animal experiments, and each group had six rats. In the acute experiment, drug administration was via i.v. injection. For i.v. injection, the animals were randomly assigned into four groups: vehicle (0.1% DMSO–0.9% salt solution, n = 6), low-dose group (0.6 mg kg^−1 body weight, n = 6), medium-dose group (2 mg kg^−1 body weight, n = 6), and high-dose group (6 mg kg^−1 body weight, n = 6). The drug was administered using a venous catheter. In chronic experiments, the animals were randomly assigned into five groups: vehicle (5% Tween 80–0.9% salt solution, n = 6), captopril group (5 mg kg^−1 body weight, n = 6), low-dose group (3 mg kg^−1 body weight, n = 6), medium-dose group (10 mg kg^−1 body weight, n = 6), and high-dose group (30 mg kg^−1 body weight, n = 6). Oral administration with drug or 5% Tween 80–0.9% salt solution was carried out once a day, and continued for 14 days. The drugs were dissolved in 0.1% DMSO–0.9% salt solution for intravenous injection and in 5% Tween 80–0.9% salt solution for oral administration. Blood pressure was recorded in real time.
Real-time blood pressure level was monitored after drug treatment in the acute and chronic experiments. All animals were surgically implanted with a catheter in the left femoral artery. After connection to the monitor, all animals were placed at room temperature of 25°C for 0.5–1 h and the average blood pressure value was calculated based on a real-time blood pressure curve (10 s of every 30 s).
After euthanizing the rats with sodium pentobarbital (100 mg kg^−1, i.p.) administration in combination with isoflurane inhalation, the aortas were harvested directly according to a previously described method. The aortas were fixed in 4% paraformaldehyde for 24 h and embedded in paraffin. The cross-sections (5 μm) were stained with hematoxylin and eosin or subjected to immunostaining. Immunofluorescence staining for ACE and ACE2 was performed according to the manufacturer’s instructions (Servicebio, Wuhan, China).

Consider one molecule from PMC8963105, “A Novel Modulator of the Renin–Angiotensin System, Benzoylaconitine, Attenuates Hypertension by Targeting ACE/ACE2 in Enhancing Vasodilation and Alleviating Vascular Inflammation” (Frontiers in Pharmacology, 2022).

Structures are written as SMILES.

With `CCN1CC2(COC)C(O)CC(OC)C34C5CC6(O)C(OC)C(O)C(O)(C5C6OC(=O)c5ccccc5)C(C(OC)C23)C14` (stereo not shown) [BAC, Benzoylaconitine], the “level of ACE in blood” value in assay [1] is given as “decreased”. Moreover, the “blood pressure versus vehicle group” value in assay [2] (oral 3 mg kg^−1 once a day, 14 days) is “did not significantly differ”. For the same molecule, in assay [2] (oral 10 mg kg^−1 once a day), the DBP came to 119 ± 8 mmHg, the MAP turned out to be 136 ± 7 mmHg and the SBP is recorded as 154 ± 6 mmHg. In assay [2] (oral 30 mg kg^−1 once a day, 14 days), the heart rate result was “reduce the heart rate”. For the same molecule, in assay [2] (oral 30 mg kg^−1 once a day), the DBP is 101 ± 7 mmHg, the MAP stood at 121 ± 6 mmHg and the SBP is reported as 139 ± 6 mmHg. For the same molecule, the “vascular smooth muscle thickness (hematoxylin and eosin stain of aorta)” value in assay [2] (oral administration, 14 days) is “reverse smooth muscle remodeling”.
